The record followed here is patent publication US6228373A, “Peptides with immunomodulatory effects” (priority 1995, dated 2001).

The test system of experiment [1] is rat spontaneously developed mammary carcinoma cells. The experiment is described as follows: Effects of peptides on tumour growth. It is filed as in vivo. The note with it: Wistar rats, subcutaneous mammary carcinoma, gavage once a day, all dose levels tested. As to the method: 10^4 rat spontaneously developed mammary carcinoma cells in isotonic saline and 5% normal syngeneic rat serum were inoculated subcutaneously in the right hindlegs of Wistar rats (8 per group). Tumour size was estimated by palpation and caliper measurements of a first diameter (a), being the largest diameter, and the one (b) perpendicular to the first. The volume of the tumour was calculated using the formula: V=0.4 ab^2.
Tumour volume is given in mm^3 as a median for each group of rats (8 per group).
Drug and control (isotonic saline) were administered by gavage (oesophagealtube) once a day (a.m.) on each of days 4-8 and 11-15 for peptides
i) Gly-Pro-Cys-Cys-Pro-Gly (SEQ ID NO:20; 3 μmol/kg/day); ii) Ala-Pro-Cys-Cys-Val-Pro (SEQ ID NO:21; 0.03 and […]);

Experiment [2] concerns mice (DTH test as per Example 43). The experiment is described as follows: DTH test, comparison of different routes of administration. In kind it is in vivo. As to the method: The mice were sensitized, Day 0, by epicutaneous application of 150 μl of an absolute ethanol-acetone (3:1) solution containing 3% OXA on the shaved abdomen. Treatment with peptides 1 to 41 inclusive, or vehicle (phosphate buffer, pH 7.4, containing a mixture of Buffer A and Buffer B in the proportion 63%:37% B (Buffer A: Na2 HPO4, 0.89 g/100 ml, EDTA 0.05 g/100 ml; Buffer B: NaH2 PO4, 0.69 g/100 ml, EDTA 0.05 g/100 ml) was initiated by oral feeding immediately after sensitization and continued once daily (a.m) until Day 6. Seven days after sensitization, both ears of all mice were challenged on both sides by topical application of 20 μl 1% OXA dissolved in peanut oil. Ear thickness was measured prior to and at 24 hours or 48 hours after challenge using an Oditest spring calliper. Challenges and measurements were performed under light pentobarbital anaesthesia.
The intensity of the DTH reactions was measured according to the method described by van Loveren H., et al. (1984) J. Immunol. Methods 67: 311 and expressed according to the formula: Tt24/48 -Tt0 μm units, where t0, t24 and t48 represent the ear thickness at time 0, +24 hrs or +48 hrs after challenge respectively, in individual tests (T). The results are expressed as the mean +/- S.E.M.. The level of significance between means of the groups is obtained by Student's two-tailed t-test. […]
Peptide (Peptide No. 4-derived from SEQ ID NO:24) was administered to mice (groups of 10) orally and by parenteral injection (intravenous and subcutaneous injection) at doses of from 0.0003 μmol/kg body weight through to 3.0 μmol/kg body weight as per example 43. […] The mean and standard error of the mean for each group of mice (10 per group) was recorded.
Peptide (SEQ ID NO:24, dimerized as shown in Box 36 of Table 1) was administered to mice (groups of 10) at doses of 0.03 μmol/kg body weight and 3.0 μmol/kg body weight. […] The mean and standard error of the mean for each group of mice (10 per group) was calculated.

The mark [3] stands for this setting: 0.03 and 3.0 μmol/kg body weight.

SMILES strings stand for the structures. Positions of bridges follow the written chain, without caps; N, C: chain ends. Residues, ends and D or L forms follow the SMILES beside them. Chains are numbered I, II in the order given.

For `CC[C@H](C)[C@H](NC(=O)[C@@H](N)C(C)C)C(=O)N[C@H]1CSSC[C@@H](C(=O)N[C@@H](CC(C)C)C(=O)N[C@H](C(=O)O)[C@@H](C)O)NC1=O` [SEQ ID NO:26] (H-VICCLT-OH; disulfide 3-4), the “tumour volume compared with the control” value in experiment [1] is given as “marked decrease in tumour volume”.
As for `O=C(CNC(=O)[C@@H]1CCCN1)N[C@H]1CSSC[C@@H](C(=O)NCC(=O)N2CCC[C@H]2C(=O)O)NC1=O` [Peptide 4] (H-PGCCGP-OH; disulfide 3-4), the “immunomodulatory response, oral administration versus other parenteral means” value in experiment [2] (0.0003 to 3.0 μmol/kg body weight, oral vs intravenous and subcutaneous injection) is reported as “more marked immunomodulatory response”.
Turning to `O=C(CNC(=O)[C@@H]1CCCN1)N[C@H]1CSSC[C@H](NC(=O)CNC(=O)[C@@H]2CCCN2)C(=O)N[C@H](C(=O)NCC(=O)N2CCC[C@H]2C(=O)O)CSSC[C@@H](C(=O)NCC(=O)N2CCC[C@H]2C(=O)O)NC1=O` [Peptide 36] (I: H-PGCCGP-OH / II: H-PGCCGP-OH; disulfide I:3-II:3, I:4-II:4), in experiment [2] (setting [3]), the “immunomodulatory effect in the DTH test relative to the control” value is recorded as “significant immunomodulatory effect” and the “reaction by oral route relative to parenteral routes at the same dosage” value is listed as “stronger reaction”.
Turning to `NCC(=O)N1CCC[C@H]1C(=O)N[C@@H](CS)C(=O)N[C@@H](CS)C(=O)N1CCC[C@H]1C(=O)NCC(=O)O` [Peptide 1, Gly-Pro-Cys-Cys-Pro-Gly] (H-GPCCPG-OH), the “tumour volume compared with the control” value in experiment [1] was “marked decrease in tumour volume”.
